Several values for one entry are separate records, joined by “and”; a condition that tells them apart may be missing. Equal entries are not always repeated.
Tests used:
[1] = xn = mol fraction of the nth substance listed; conditions: 101 kPa

CCC1(C)OC1C#N (stereo unspecified)
101 kPa
Conditions	viscosity [mPa·s]
293.15 K	1.485
298.15 K	1.34
303.15 K	1.19
313.15 K	0.98
323.15 K	0.84

Cc1cccc(O)c1
Conditions	viscosity
293.15 K, 101 kPa	16.9 mPa·s
298 K, 101.3 kPa	13.19 mPa·s
303 K, 101.3 kPa	9.877 mPa·s
308 K, 101.3 kPa	7.599 mPa·s
308.15 K, 101.33 kPa	7.635 mPa·s
313 K, 101.3 kPa	6.146 mPa·s
313.15 K, 101 kPa	5.925 mPa·s and 6.542 mPa·s
313.15 K, 101.3 kPa	6.252 mPa·s
313.15 K, 101.33 kPa	6.18 mPa·s
318 K, 101.3 kPa	4.968 mPa·s
318.15 K, 101 kPa	5.373 mPa·s and 5.373 mPa·s
323.15 K, 101.3 kPa	4.111 mPa·s

N
Conditions	viscosity [mPa·s]
293.15 K, 101 kPa	0.144

O=Cc1ccco1
100 kPa
Conditions	viscosity [mPa·s]
293.15 K	1.62
298.15 K	1.48
303.15 K	1.36
308.15 K	1.26
313.15 K	1.17
318.15 K	1.09
323.15 K	1.02

CC(=O)NCC(=O)O + O
viscosity [mPa·s], [1]
Conditions	305.15 K	310.15 K	315.15 K
x1 = 3.6e-05	0.7912	0.7079	0.6523
x1 = 7.24e-05	0.7987	0.7201	0.6594
x1 = 0.000108	0.8032	0.7298	0.6613
x1 = 0.000144	0.8098	0.7307	0.6623
x1 = 0.0001823	0.8102	0.7321	0.6627
x1 = 0.000344	0.8162	0.7345	0.6658
x1 = 0.0007167	0.8254	0.7372	0.6685
x1 = 0.001025	0.8325	0.7401	0.6724
x1 = 0.001416	0.8398	0.7443	0.6751
x1 = 0.001792	0.8466	0.7473	0.6785
x1 = 0.002155	0.8523	0.7499	0.6822
x1 = 0.002607	0.8583	0.7554	0.6887
x1 = 0.003011	0.8641	0.7603	0.6933
x1 = 0.003546	0.8721	0.7654	0.6996

CC1CCC(=O)O1 (stereo unspecified) + O
viscosity [mPa·s], [1]
Conditions	x1 = 0.0503	x1 = 0.0995	x1 = 0.1997	x1 = 0.2994	x1 = 0.3997	x1 = 0.499	x1 = 0.5994	x1 = 0.701	x1 = 0.7995	x1 = 0.8996
298.15 K	1.405	1.747	2.113	2.204	2.169	2.055	1.998	1.902	1.856	1.823
303.15 K	1.243	1.533	1.852	1.939	1.921	1.831	1.786	1.719	1.689	1.671
308.15 K	1.107	1.357	1.638	1.721	1.714	1.65	1.612	1.566	1.545	1.538
313.15 K	0.962	1.193	1.449	1.529	1.531	1.487	1.454	1.426	1.408	1.407
318.15 K	0.8912	1.089	1.31	1.384	1.392	1.36	1.342	1.32	1.311	1.314

OC[C@@H](O)[C@@H](O)[C@H](O)[C@H](O)CO + O
viscosity, [1]
Conditions	298.15 K	303.15 K	308.15 K	313.15 K	318.15 K	323.15 K
x1 = 0.002	–	0.837 mPa·s	0.748 mPa·s	0.674 mPa·s	–	0.565 mPa·s
x1 = 0.003588	0.9818 mPa·s	–	–	–	–	–
x1 = 0.004	–	0.872 mPa·s	0.777 mPa·s	0.705 mPa·s	0.645 mPa·s	0.587 mPa·s
x1 = 0.005	–	0.909 mPa·s	0.814 mPa·s	0.732 mPa·s	0.671 mPa·s	0.61 mPa·s
x1 = 0.007	–	0.941 mPa·s	0.845 mPa·s	0.757 mPa·s	0.692 mPa·s	0.626 mPa·s
x1 = 0.007158	1.085 mPa·s	–	–	–	–	–
x1 = 0.009	–	0.983 mPa·s	0.883 mPa·s	0.788 mPa·s	0.722 mPa·s	0.653 mPa·s
x1 = 0.01	–	1.069 mPa·s	0.914 mPa·s and 0.949 mPa·s and 0.992 mPa·s	0.821 mPa·s and 0.886 mPa·s	0.75 mPa·s and 0.777 mPa·s and 0.81 mPa·s	0.673 mPa·s and 0.697 mPa·s and 0.731 mPa·s
x1 = 0.01069	1.191 mPa·s	–	–	–	–	–
x1 = 0.01422	1.311 mPa·s	–	–	–	–	–
x1 = 0.01769	1.442 mPa·s	–	–	–	–	–
x1 = 0.018	–	1.217 mPa·s	1.088 mPa·s	0.966 mPa·s	0.876 mPa·s	0.786 mPa·s
x1 = 0.02	–	1.17 mPa·s	1.038 mPa·s	0.928 mPa·s	0.84 mPa·s	0.756 mPa·s

— the CheMixHub viscosity set
